Measured values from patent US12180255B2, “Compositions and methods for derepressing RE1 silencing transcription factor target genes” (Alcamena Stem Cell Therapeutics, LLC, priority 2019, dated 2024).
Where a SMILES comes first, the peptide text is derived from it. [ ]: non-standard residue; d: D form. Gly(Dodecyl) = CCCCCCCCCCCC[C@H](N)C(=O)O

Tests used:
CTDSP1 [1] = target: T1, CTDSP1 (Homo sapiens, UniProt Q9GZU7); assay: In vitro CTDSP1 phosphatase activity on phosphorylated REST peptide; assay type: biochemical; conditions: relative to water control
T1 construct: GSGS linker + His6 (C)
T1 sequence (Q9GZU7 with tags, fused parts or gaps): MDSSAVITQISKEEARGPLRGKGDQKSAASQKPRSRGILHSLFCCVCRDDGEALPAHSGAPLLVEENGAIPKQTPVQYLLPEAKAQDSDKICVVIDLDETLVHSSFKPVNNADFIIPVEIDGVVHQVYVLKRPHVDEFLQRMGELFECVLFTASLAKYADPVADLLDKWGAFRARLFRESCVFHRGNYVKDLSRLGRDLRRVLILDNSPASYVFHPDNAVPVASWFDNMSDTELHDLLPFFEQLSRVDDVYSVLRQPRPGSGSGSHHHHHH

CTDSP1 [2] = target: T1, CTDSP1; assay: as above; assay type: biochemical; conditions: phosphorylated REST peptide substrate; read-out: EC50, inhibition of CTDSP1 activity
Protocol: FIG. 25. In vitro CTDSP1 phosphatase activity (relative to GST control) on the REST peptide (TEDpSPPp[…] (SEQ ID NO: 329)) as a substrate after exposure to 1 μM of RPP (SEQ ID NO: 1) or one of its variants (Table 3).
FIG. 26. […] N=5, error bars are standard deviation.
Results: FIG. 25—The top 51 most abundant RPP variants identified in the RNA display/protein evolution screen are listed in-Table 3 in the order of most (V1) to least (V51) abundant peptides. The primers used to make these peptides are listed in-Table 5. A phosphatase activity screen (Table 6, FIG. 25) was used to assess the ability of the top 51 RPPV to inhibit CTDSP1 phosphatase activity at amino acids 861 and 864 on the endogenous phosphorylated REST peptide (TEDpSPPp[…] (SEQ ID NO: 329)).
The phosphorylated REST peptide (TEDpSPPp[…] (SEQ ID NO: 329)) was synthesized by GeneScript. Phosphatase reactions were performed with 10 mM Tris pH 8, 10 mM MgCl2, 100 nM CTDSP1, 0.5 μM phosphate sensor (Thermo Fischer), 50 μM of REST peptide and various concentrations of peptide-GST fusions at room temperature for 10 min. All assays were performed in 96-well pates (Corning P/N 3686) rinsed with water 10 times. Fluorescence was measured by BioTek Synergy HTX using kinetic read with excitation at 420/27 nm and emission at 485/20 nm.

In the case of `CCCCCCCCCCCC[C@@H]1NC(=O)[C@@H](CCCNC(=N)N)NC(=O)[C@@H](CCCNC(=N)N)NC(=O)[C@@H](Cc2c[nH]c3ccccc23)NC(=O)[C@@H](Cc2c[nH]c3ccccc23)NC(=O)[C@@H](CCCNC(=N)N)NC(=O)[C@@H](CCC(=O)O)NC(=O)[C@@H](CC(=O)O)NC(=O)[C@@H](CC(C)C)NC(=O)[C@@H](CCC(=O)O)NC(=O)[C@H]2CCCN2C(=O)[C@H]2CCCN2C(=O)[C@@H](CCC(=O)O)NC(=O)[C@H]2CCCN2C(=O)[C@H]2CCCN2C(=O)[C@@H](CC(C)C)NC(=O)[C@H]2CCCN2C(=O)[C@@H](CCCCN)NC(=O)[C@@H](CCCNC(=N)N)NC(=O)[C@@H](CCCNC(=N)N)NC(=O)[C@@H](CCCNC(=N)N)NC(=O)[C@@H](CCCNC(=N)N)NC(=O)[C@@H](CCCNC(=N)N)NC1=O` [SEQ ID NO: 12] (cyclo([dR][dW][dW][dR][dR][Gly(Dodecyl)][dR][dR][dR][dR][dR][dK][dP][dL][dP][dP][dE][dP][dP][dE][dL][dD][dE])), the “% Activity (Average N = 5)” value (CTDSP1 [1]; 10 nM RPP) is reported as 89.97%, the “% Activity (Average N = 5)” value (CTDSP1 [1]; 20 nM RPP) is reported as 48.7% and the “% Activity (Average N = 5)” value (CTDSP1 [1]; 40 nM RPP) is reported as 34.46%. The “% Activity (Average N = 5)” value (CTDSP1 [1]; 60 nM RPP) was 31.17%, the “% Activity (Average N = 5)” value (CTDSP1 [1]; 80 nM RPP) was 22.67% and the “% Activity (Average N = 5)” value (CTDSP1 [1]; 100 nM RPP) was 13.72%. For the same molecule, the EC50 (CTDSP1 [2]) was about 20 nM.
